From patent US20100011610A1, “FLUIDIZED SPRAY DRYING” (Vertex Pharmaceuticals Incorporated, priority 2006, published 2010)

Experiment: in vivo
Conditions: rat, po

bioavailability: < 0.5%
SMILES: CCC[C@H](NC(=O)[C@@H]1[C@H]2CCC[C@H]2CN1C(=O)[C@@H](NC(=O)[C@@H](NC(=O)c1cnccn1)C1CCCCC1)C(C)(C)C)C(=O)C(=O)NC1CC1 [VX-950, Telaprevir]
